Measured values published in PMC8413904 (Pharmacology Research & Perspectives, 2021).

How the values were obtained:
[1] = test system: cultured rat brain cortical neurons; experiment: Dynamic calcium assay (Fluo‐8); assay type: cell-based
Description: (§1) All animal experimental procedures and housing have been approved by the Institutional Animal Care and Use Committee (IACUC) protocol #18‐015 of Virginia Tech. Embryonic day 18 (E18) rat brain tissue samples were obtained from adult pregnant SD rats. Rat brain primary cortical, striatal, and cerebellar neurons were cultured on poly‐d‐lysine coated 96‐well plates for 14 days in vitro (DIV14) before using for the experiments. Primary rat neuron culture was performed as previously published.[44] Briefly, each well of a 96 well plate was loaded with 50 000 cells and grown in 200 µl neurobasal media supplemented with B27, glutamax, penicillin, streptomycin. One hundred microliters of media was replaced with fresh media once in 4 days. Eight to thirteen fetus were obtained from each pregnant rat. Brain tissue from these fetus were pooled to obtain the neurons. Cortical, striatal, and cerebellar neuron assays were carried out at different time points.
Dynamic calcium assay was carried out, using Fluo‐8 no‐wash kit (abcam, ab112129), as per the manufacturer's instructions with minor modifications to fit with experimental necessities. On DIV14, all 200 μl of media was removed and replaced it with 100 μl of HBSS and 100 μl of Fluo‐8 dye loading solution. The plates were incubated at 37°C for 30 min and at room temperature for 30 min. […] Costar 96‐well clear bottom black side plates were read from the bottom, nine times, with 60 s intervals between each read. Temperature was set at 37°C and reading speed was 100 ms.

[2] = test system: cultured rat brain cerebellar neurons; experiment: Dynamic calcium assay (Fluo‐8); assay type: cell-based; conditions: 100 µM CNS4 plus 300 µM NMDA; p < .01 vs 300 µM NMDA (12810)
Description: as §1
(§2) Dynamic calcium assay was carried out, using Fluo‐8 no‐wash kit (abcam, ab112129), as per the manufacturer's instructions with minor modifications to fit with experimental necessities. On DIV14, all 200 μl of media was removed and replaced it with 100 μl of HBSS and 100 μl of Fluo‐8 dye loading solution. The plates were incubated at 37°C for 30 min and at room temperature for 30 min. A volume of 100 µL of test chemicals (3× of desired final concentration) was added to the plates immediately before running the calcium flux assay and read the fluorescence intensity at 490/525 nm (ex/em) using Synergy microplate reader, BioTek, VT. Costar 96‐well clear bottom black side plates were read from the bottom, nine times, with 60 s intervals between each read. Temperature was set at 37°C and reading speed was 100 ms.

[3] = test system: cultured rat brain striatal neurons; experiment: Dynamic calcium assay (Fluo‐8); assay type: cell-based
Description: as §1, §2

[4] = test system: cultured rat brain cerebellar neurons; experiment: Na^+ assay (CoroNa green‐AM); assay type: cell-based
Description: as §1
(§3) For Na^+ assay, DIV14 neurons were washed with HBSS and treated with freshly prepared CoroNa green‐AM dye (ThermoFisher, cat # C36676) and incubated for 45 min in 37°C. Plates were washed twice with HBSS before adding drug solutions dissolved in HBSS, and read at 492/516 nm (ex/em) using a plate reader. RFU values of background control and treatments were plotted to identify the effect of CNS4 on NMDA‐induced Na^+ flux in the neurons.

[5] = test system: cultured rat brain striatal neurons; experiment: Na^+ assay (CoroNa green‐AM); assay type: cell-based; conditions: 0.3 µM NMDA plus 100 µM CNS4; highest level
Description: as §1, §3

[6] = molecular target: T1, GluN1/2D (UniProt O15399+P35439); experiment: TEVC electrophysiology dose–response in xenopus oocytes; assay type: cell-based; set-up: host or cells: Xenopus oocytes (cRNA injection)
Description: NMDAR constructs: cDNA encoding the NMDAR1a subunit (GluN1a) was obtained from Dr. Nakanishi. cDNA encoding the GluN2B (pci_sepGluN2B) was developed initially in the Malinow lab[36] and purchased from Addgene (cat# 23998). cDNA encoding the GluN2C and GluN2D were purchased from GenScript. Mutated GluN1, 2A and 2B cDNA constructs capable of assembling as GluN1/2A/2B triheteromeric (1/2AB) receptors[37] were obtained from Dr. Paoletti (Laboratoire de Neurobiologie, CNRS). […] Plasmids were linearized with NotI (GluN1a) or Avrll (GluN2B), or BstB1 (GluN2C and GluN2D) and transcribed in vitro with T7 (GluN1a, GluN1/2A, GluN2B, GluN2C, & GluN2D) RNA polymerase using the mMessage mMachine transcription kits (Invitrogen by Thermo Fisher Scientific).
Stage IV frog oocytes were obtained from Xenopus‐I. NMDAR subunit cRNAs were suspended in nuclease‐free sterile water. GluN1A, GluN2B, GluN2C, GluN2D, and GluN1/2A/2B cRNAs were mixed in a ratio of 1:1–3. 50 nl of the final cRNA mixture was microinjected (40–70 ng total) into the oocyte cytoplasm. Oocytes were incubated in ND‐96 solution at 18^◦C prior to electrophysiological recordings (1–3 days).
Electrophysiological responses were measured using a standard two‐microelectrode voltage‐clamp workstation [Warner Instruments (Hamden, Connecticut) model OC‐725C] designed to provide a fast clamp of large cells. The recording buffer contained 116 mM NaCl, 2 mM KCl, 0.3 mM BaCl2, and 5 mM HEPES, pH 7.4. Response magnitude was determined in xenopus oocytes expressing different NMDAR subunits (GluN1/2A, 1/2B, 1/2C, 1/2D, and 1/2A/2B) by the steady plateau response elicited by bath application of different agonist concentrations. […] Response amplitudes for functional NMDARs were generally between 0.1 and 2 μA. […] Dose–response relationships were fit to an appropriate curve‐fitting equation using GraphPad Prism‐7. Nonlinear regression was used to calculate EC50 and/or percentage maximal response. […] Statistical significance was determined at the overall alpha level .05, using appropriate statistical methods as described in each figure captions.

[7] = molecular target: T2, GluN1/2A (UniProt P35439+Q12879); experiment: Current–voltage (I–V) relationship, TEVC in xenopus oocytes
Description: (§4) GluN1A, GluN2B, GluN2C, GluN2D, and GluN1/2A/2B cRNAs were mixed in a ratio of 1:1–3. 50 nl of the final cRNA mixture was microinjected (40–70 ng total) into the oocyte cytoplasm. Oocytes were incubated in ND‐96 solution at 18^◦C prior to electrophysiological recordings (1–3 days).
(§5) After obtaining a steady‐state response to different agonist applications, agonist plus 100 μM CNS4 or agonist plus 40 μM MgCl2 plus 100 μM CNS4 was applied. […] Data points were aligned by least‐square fit by third‐order polynomial equation (Y = B0 + B1*X +B2*X ^2 + B3*X ^3), except for GluN1/2B that needed a fourth‐order polynomial equation.

[8] = molecular target: T1, GluN1/2D; experiment: as above
Description: as §4, §5

[9] = molecular target: T2, GluN1/2A; experiment: Whole‐cell patch‐clamp electrophysiology in HEK293T cells; assay type: cell-based; set-up: expressed in transfected cells; host or cells: HEK-293 / HEK293T cells
Description: Whole‐cell patch‐clamp electrophysiology studies were carried out in the HEK‐293 cells, expressing recombinant NMDARs that lack native functional NMDARs.[40], [41], [42] Equal quantity of (1 µg) cDNA for GluN1a, GluN2 (A or B or C or D) subunits were co‐transfected 24–48 h before patch‐clamp electrophysiology assay. […] Cells were carefully washed before performing experiments and were used for the electrophysiology experiments after 24–48 h incubation at 37°C with 5%CO2. The whole‐cell patch‐clamp electrophysiology assay was performed using semi‐automated patch‐clamp equipment, Port‐a‐Patch (Nanion Technologies GmbH). Following are the constituents of various solutions used for patch‐clamp electrophysiology: internal solution [(mM) NaCl 10, EGTA 20, CsF 110, HEPES 10], Mg‐free external (recording) solution [(mM) NaCl 140, KCl 4, CaCl2 2, HEPES 10, D‐GlucoseMonohydrate 5], and Mg‐free seal enhancer solution [(mM) NaCl 80, KCl 3, CaCl2 35, HEPES 10]. Nanion NPC chips with […] resistance were used for the HEK‐293 cell recordings.

[10] = molecular target: GluN1/2B (Rattus norvegicus, UniProt P35439+Q00960); experiment: TEVC electrophysiology dose–response in xenopus oocytes; assay type: cell-based; set-up: SEP (super-ecliptic pHluorin); host or cells: Xenopus oocytes (cRNA injection); conditions: 100 µM CNS4; 0.3 µM glutamate + 100 µM glycine; −60 mV; average ± SEM
Description: NMDAR constructs: cDNA encoding the NMDAR1a subunit (GluN1a) was obtained from Dr. Nakanishi. cDNA encoding the GluN2B (pci_sepGluN2B) was developed initially in the Malinow lab[36] and purchased from Addgene (cat# 23998). cDNA encoding the GluN2C and GluN2D were purchased from GenScript. Mutated GluN1, 2A and 2B cDNA constructs capable of assembling as GluN1/2A/2B triheteromeric (1/2AB) receptors[37] were obtained from Dr. Paoletti (Laboratoire de Neurobiologie, CNRS). […] Plasmids were linearized with NotI (GluN1a) or Avrll (GluN2B), or BstB1 (GluN2C and GluN2D) and transcribed in vitro with T7 (GluN1a, GluN1/2A, GluN2B, GluN2C, & GluN2D) RNA polymerase using the mMessage mMachine transcription kits (Invitrogen by Thermo Fisher Scientific). […]
Electrophysiological responses were measured using a standard two‐microelectrode voltage‐clamp workstation [Warner Instruments (Hamden, Connecticut) model OC‐725C] designed to provide a fast clamp of large cells. […] Response magnitude was determined in xenopus oocytes expressing different NMDAR subunits (GluN1/2A, 1/2B, 1/2C, 1/2D, and 1/2A/2B) by the steady plateau response elicited by bath application of different agonist concentrations. […] Statistical significance was determined at the overall alpha level .05, using appropriate statistical methods as described in each figure captions.

[11] = 100 µM CNS4, 100 µM glutamate + 100 µM glycine, −90 to +30 mv

T1 sequence (O15399 28-1336, other chains not shown): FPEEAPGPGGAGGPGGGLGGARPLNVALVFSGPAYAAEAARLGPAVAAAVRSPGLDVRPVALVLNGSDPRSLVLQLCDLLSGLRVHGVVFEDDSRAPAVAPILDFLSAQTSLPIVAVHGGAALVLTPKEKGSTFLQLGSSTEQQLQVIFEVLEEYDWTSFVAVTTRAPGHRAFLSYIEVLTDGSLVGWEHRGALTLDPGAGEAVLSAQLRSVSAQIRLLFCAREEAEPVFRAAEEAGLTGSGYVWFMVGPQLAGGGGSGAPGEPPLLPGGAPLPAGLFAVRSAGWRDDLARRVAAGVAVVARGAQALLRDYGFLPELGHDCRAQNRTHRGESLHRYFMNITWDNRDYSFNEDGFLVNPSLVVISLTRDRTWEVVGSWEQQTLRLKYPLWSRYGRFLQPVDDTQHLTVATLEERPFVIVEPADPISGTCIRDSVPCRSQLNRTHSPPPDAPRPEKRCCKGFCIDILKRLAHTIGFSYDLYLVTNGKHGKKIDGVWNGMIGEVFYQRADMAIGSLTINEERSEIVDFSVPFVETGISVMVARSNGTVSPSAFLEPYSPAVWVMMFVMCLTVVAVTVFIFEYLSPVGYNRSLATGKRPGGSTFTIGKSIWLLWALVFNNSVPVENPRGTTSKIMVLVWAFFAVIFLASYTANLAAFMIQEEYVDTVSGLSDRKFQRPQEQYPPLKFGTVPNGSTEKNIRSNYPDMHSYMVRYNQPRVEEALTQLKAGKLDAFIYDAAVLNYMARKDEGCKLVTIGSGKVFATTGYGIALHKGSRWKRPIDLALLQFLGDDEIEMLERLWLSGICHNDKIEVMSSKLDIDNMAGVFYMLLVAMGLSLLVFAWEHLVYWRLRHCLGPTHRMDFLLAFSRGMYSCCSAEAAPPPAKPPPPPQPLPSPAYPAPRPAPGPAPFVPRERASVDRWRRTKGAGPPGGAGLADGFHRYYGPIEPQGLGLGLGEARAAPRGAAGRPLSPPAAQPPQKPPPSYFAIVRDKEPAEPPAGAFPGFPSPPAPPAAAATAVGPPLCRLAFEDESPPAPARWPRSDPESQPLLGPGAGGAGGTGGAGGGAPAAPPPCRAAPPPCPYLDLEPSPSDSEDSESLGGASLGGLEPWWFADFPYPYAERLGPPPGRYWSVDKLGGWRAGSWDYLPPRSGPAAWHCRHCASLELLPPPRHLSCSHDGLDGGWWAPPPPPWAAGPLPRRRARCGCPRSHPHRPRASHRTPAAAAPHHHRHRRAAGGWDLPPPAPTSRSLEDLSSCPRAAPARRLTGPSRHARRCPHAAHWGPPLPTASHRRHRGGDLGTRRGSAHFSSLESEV
T2 sequence (Q12879 23-1464, other chains not shown): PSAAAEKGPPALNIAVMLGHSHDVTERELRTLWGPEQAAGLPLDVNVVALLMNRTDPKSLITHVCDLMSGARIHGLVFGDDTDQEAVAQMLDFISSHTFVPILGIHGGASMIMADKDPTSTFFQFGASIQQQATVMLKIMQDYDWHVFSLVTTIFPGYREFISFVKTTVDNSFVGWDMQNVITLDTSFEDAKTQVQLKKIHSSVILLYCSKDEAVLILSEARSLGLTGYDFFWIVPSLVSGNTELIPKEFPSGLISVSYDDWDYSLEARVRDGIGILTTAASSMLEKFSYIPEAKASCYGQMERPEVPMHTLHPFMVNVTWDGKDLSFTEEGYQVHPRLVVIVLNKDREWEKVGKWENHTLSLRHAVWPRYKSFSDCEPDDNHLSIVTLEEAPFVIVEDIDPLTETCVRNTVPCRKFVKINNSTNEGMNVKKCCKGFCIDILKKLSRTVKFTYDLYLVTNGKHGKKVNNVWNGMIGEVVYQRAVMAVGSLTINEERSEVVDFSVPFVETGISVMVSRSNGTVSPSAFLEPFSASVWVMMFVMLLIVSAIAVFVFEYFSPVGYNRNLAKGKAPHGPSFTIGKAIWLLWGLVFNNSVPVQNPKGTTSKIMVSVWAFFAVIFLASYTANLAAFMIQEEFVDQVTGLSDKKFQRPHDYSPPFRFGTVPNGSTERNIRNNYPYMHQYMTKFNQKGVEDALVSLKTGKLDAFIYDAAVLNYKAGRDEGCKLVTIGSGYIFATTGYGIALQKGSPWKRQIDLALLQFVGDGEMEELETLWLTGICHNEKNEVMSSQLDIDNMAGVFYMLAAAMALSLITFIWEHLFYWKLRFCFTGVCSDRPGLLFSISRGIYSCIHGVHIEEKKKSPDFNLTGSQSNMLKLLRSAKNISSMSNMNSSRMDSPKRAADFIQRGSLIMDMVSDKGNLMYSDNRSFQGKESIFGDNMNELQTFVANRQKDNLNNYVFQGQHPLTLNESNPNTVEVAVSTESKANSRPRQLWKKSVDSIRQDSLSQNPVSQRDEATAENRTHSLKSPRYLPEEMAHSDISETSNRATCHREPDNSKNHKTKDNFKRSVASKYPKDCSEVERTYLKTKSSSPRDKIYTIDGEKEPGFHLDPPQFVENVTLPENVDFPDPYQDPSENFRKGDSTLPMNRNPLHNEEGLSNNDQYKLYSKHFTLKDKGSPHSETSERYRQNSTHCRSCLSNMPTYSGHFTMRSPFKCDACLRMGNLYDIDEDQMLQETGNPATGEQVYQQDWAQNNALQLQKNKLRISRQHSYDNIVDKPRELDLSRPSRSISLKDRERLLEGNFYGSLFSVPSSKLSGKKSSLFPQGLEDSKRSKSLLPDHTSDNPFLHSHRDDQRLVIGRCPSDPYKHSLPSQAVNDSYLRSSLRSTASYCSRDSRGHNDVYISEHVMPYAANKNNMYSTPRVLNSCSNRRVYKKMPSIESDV
Chain of GluN1/2B (Q00960 27-1482, other chains not shown): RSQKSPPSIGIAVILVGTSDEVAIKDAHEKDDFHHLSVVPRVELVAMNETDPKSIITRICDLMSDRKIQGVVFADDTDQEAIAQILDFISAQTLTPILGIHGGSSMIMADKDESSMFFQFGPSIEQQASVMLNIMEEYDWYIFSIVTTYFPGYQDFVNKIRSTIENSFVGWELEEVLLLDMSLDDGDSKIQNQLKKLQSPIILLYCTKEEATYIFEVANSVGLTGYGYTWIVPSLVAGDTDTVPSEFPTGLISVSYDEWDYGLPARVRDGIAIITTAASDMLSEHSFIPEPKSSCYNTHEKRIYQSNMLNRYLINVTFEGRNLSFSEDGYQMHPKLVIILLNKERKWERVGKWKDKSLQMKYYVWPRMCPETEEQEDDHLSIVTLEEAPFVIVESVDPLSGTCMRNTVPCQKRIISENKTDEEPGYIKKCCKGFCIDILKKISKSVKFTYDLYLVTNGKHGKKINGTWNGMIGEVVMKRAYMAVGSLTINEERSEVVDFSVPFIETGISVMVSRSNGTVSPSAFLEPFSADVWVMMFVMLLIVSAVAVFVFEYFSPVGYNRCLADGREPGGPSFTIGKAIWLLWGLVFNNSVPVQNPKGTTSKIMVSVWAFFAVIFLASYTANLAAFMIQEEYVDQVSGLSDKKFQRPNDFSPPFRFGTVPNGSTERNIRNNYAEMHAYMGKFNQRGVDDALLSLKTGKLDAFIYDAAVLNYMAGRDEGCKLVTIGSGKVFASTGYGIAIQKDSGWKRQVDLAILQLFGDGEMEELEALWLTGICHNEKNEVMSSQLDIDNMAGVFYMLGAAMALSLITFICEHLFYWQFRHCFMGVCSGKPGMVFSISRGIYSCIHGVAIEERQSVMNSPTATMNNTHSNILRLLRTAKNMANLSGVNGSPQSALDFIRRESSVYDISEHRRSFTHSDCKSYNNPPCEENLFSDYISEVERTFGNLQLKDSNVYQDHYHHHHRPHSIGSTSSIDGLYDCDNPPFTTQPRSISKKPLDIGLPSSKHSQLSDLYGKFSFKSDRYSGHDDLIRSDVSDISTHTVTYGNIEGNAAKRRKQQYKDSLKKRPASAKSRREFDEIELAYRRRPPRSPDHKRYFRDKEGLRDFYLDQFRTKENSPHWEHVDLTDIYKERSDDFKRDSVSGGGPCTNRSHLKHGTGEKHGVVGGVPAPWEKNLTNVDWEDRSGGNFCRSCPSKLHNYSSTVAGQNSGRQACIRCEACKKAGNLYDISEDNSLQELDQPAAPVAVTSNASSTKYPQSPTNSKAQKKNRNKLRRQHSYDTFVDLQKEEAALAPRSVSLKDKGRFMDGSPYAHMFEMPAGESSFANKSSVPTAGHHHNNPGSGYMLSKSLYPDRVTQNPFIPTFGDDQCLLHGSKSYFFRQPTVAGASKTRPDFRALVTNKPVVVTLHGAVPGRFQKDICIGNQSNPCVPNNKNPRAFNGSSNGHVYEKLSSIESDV

Structure (SMILES): O=C(NC(=S)N1CCCCC1c1cccnc1)c1ccc(F)cc1 (centres unmarked) [CNS4, 4‐fluoro‐N‐(2‐(pyridin‐3‐yl)piperidine‐1‐carbonothioyl)benzamide]
- calcium signals compared to CNS4 alone treated cells ([1]; 100 µM CNS4 + 10 µM or higher concentrations of NMDA): significantly increased calcium signals
- Ca^2+ signal, mean rfu ([1]; 100 µM CNS4 + 100 µM GABA, p < .001 vs GABA alone (4196)): 5124 rfu
- Ca^2+ signal, mean rfu ([1]; 100 µM CNS4 + 100 µM acetylcholine, p < .0001 vs acetylcholine alone (6222)): 8082 rfu
- Ca^2+ signal, mean rfu ([1]; 100 µM CNS4 + 100 µM glutamate + 50 µM MK801, p = .7757 vs glutamate + MK801 (7997)): 8359 rfu
- Ca^2+ signal compared to background ([1]; 100 µM CNS4 in the presence of 0.3, 1, 3 µM NMDA): did not increase Ca^2+ signal
- Ca^2+ signal without NMDA ([1]; 100 µM CNS4 in vehicle (HBSS) with no NMDA, Figure 6A): no significant Ca^2+ signal
- more Ca^2+ signal compared to plain 300 µM NMDA ([1]; 100 µM CNS4 plus 300 µM NMDA): 43%
- Ca^2+ signal, mean rfu ([1]; 100 µM CNS4 plus 300 µM NMDA, p < .0001 vs 300 µM NMDA alone (26711)): 38274 rfu
- Ca^2+ signal, rfu [2]: 14423 rfu
- Ca^2+ signal, mean rfu ([3]; 100 µM CNS4 in vehicle, no NMDA, background control 13964, p < .0001): 6317 rfu
- CNS4 induced potentiation of Ca^2+ signal vs 300 µM NMDA ([3]; 100 µM CNS4 plus 300 µM NMDA): 86%
- Ca^2+ signal, mean rfu ([3]; 100 µM CNS4 plus 300 µM NMDA, p < .0001 vs 300 µM NMDA alone (20964)): 39001 rfu
- Na^+ signal ([4]; 0.3 µM NMDA plus 100 µM CNS4, highest level): 420668 rfu
- Na^+ signal ([4]; 100 µM CNS4 alone, Figure 7C): significantly increased
- Na^+ signal [5]: 426039 rfu
- current response, agonist alone induced maximum current normalized to 100% ([6]; 100 µM CNS4, 0.3 µM glutamate + 100 µM glycine, −60 mV, average ± SEM): 850.35% ± 133.9%
- potentiation of receptor current ([6]; higher concentration (100 & 300 µM) of glutamate, almost no effect): < 20%
- voltage dependence of effect on current amplitude [7, 11]: no voltage dependence effect
- reversal potential ([7]; agonist (100 µM glutamate + 100 µM glycine) + 40 µM MgCl2 + 100 µM CNS4, without CNS4 −20.06 ± 2.6, p > .05): −17.57 ± 2.0 mv
- reversal potential ([7]; agonist (100 µM glutamate + 100 µM glycine) + 100 µM CNS4, absence of Mg^2+, agonist alone −17.42 ± 2.2, p > .05): −17.54 ± 1.8 mv
- inward current reversal potential ([8]; 0.3 µM glutamate + 100 µM glycine + CNS4, absence of Mg2+, without CNS4 -84.35± 0.42, p<0.0001, n=6): -72.52±0.85 mv
- inward current reversal potential ([8]; 0.3 µM glutamate + 100 µM glycine + CNS4, presence of Mg2+, without CNS4 -88.29± 0.35, p<0.0001, n=6): -77.88±0.87 mv
- voltage dependence of effect on current amplitude [8, 11]: no voltage dependence effect
- reversal potential ([8]; agonist (100 µM glutamate + 100 µM glycine) + 40 µM MgCl2 + 100 µM CNS4, without CNS4 −75.8 ± 5.51, p > .05): −72.58 ± 3.08 mv
- reversal potential ([8]; agonist (100 µM glutamate + 100 µM glycine) + 100 µM CNS4, absence of Mg^2+, agonist alone −54.2 ± 4.5, p > .05): −56.05 ± 5.8 mv
- deactivation time constant tau (τ) ([9]; 100 µM CNS4 + Ag (100 µM glutamate + 100 µM glycine), n = 19, Ag alone 710.9 ± 98.27 ms, n = 9, p < .05): 1067 ± 104.3 ms
- effect on maximum inducible current ([9]; 100 µM CNS4 co‐applied with agonist, 0.3 µM glutamate + 100 µM glycine): significantly potentiated
- effect on peak current amplitude ([9]; 100 µM CNS4 co‐applied with agonist, 100 µM glutamate + 100 µM glycine): significantly inhibited
- current response, agonist alone induced maximum current normalized to 100% [10]: 193.22% ± 21.2%
